Earlier results on one molecule are cited in article PMC8583966, “Proteasome Inhibitors and Their Pharmacokinetics, Pharmacodynamics, and Metabolism” (International Journal of Molecular Sciences, 2021).

Molecules are shown by their SMILES.

Data set [1] has as its system β2. Further details: method as in PMID 20110052. Conditions: whole blood, doses as high as 45 mg/m2; cited from earlier work.
Data set [2] concerns β5 subunit of the constitutive proteasome. The settings on record: patients, doses ≥15 mg/m2; cited from earlier work.
For data set [3] the following is noted: human, in vivo, iv; cited from earlier work.
The test system of data set [4] is proteasome subunits. The settings on record: summary table; cited from earlier work.
Data set [5] relates to LMP7 subunit of the immunoproteasome. The settings on record: patients, doses ≥15 mg/m2; cited from earlier work.
Data set [6] has as its system proteasome CT-L activity. Conditions: following the first dose for each week of dosing; cited from earlier work.
The conditions of data set [7]: in vivo; cited from earlier work.
In data set [8] the test system is β1. Set-up: method as in PMID 20110052. Conditions: whole blood, doses as high as 45 mg/m2; cited from earlier work.
The conditions of data set [9]: in vivo; cited from earlier work. The source holds these as a separate data set.

In the case of `CC(C)C[C@H](NC(=O)[C@H](CCc1ccccc1)NC(=O)CN1CCOCC1)C(=O)N[C@@H](Cc1ccccc1)C(=O)N[C@@H](CC(C)C)C(=O)[C@@]1(C)CO1` [Carfilzomib], the “inhibition of β2” value in data set [1] is “Less than 18%”. Moreover, in data set [2], the “average inhibition of β5” value is listed as “greater than 83%”. The t1/2 in data set [3] is below 30 min. Also, the “Subunit Inhibition” value in data set [4] is “ß5 and LMP7”. Also, the “average inhibition of LMP7” value in data set [5] is listed as “greater than 83%”. The “time proteasome inhibition was maintained” value in [6] is recorded as at least 48 h. The “rates of peripheral neuropathy lower than with bortezomib” value in [7] is given as above 60%. Moreover, in data set [8], the “inhibition of β1” value is “Less than 18%”. Besides, the dose excreted intact entry in data set [9] is given as “less than 1%”.
